# Measured values published in patent US20210188843A1, “QUINOLINE COMPOUNDS AND THEIR PREPARATION AND USE AS ANTIMALARIAL AGENTS” (The United States of America,as represented by the …, priority 2018, published 2021).
# Read-outs that look alike come from different tables or passages of the source.
# What was measured:
# [1] = Microsomal stability (rat); type: in vitro ADME; conditions: rat microsomes
# Solubility pH 7.4 = type: physicochemical; conditions: aqueous buffer
# [2] = tested on: Asexual parasites of P. falciparum strain 3D7; assay: In vitro drug activity on asexual parasites (SYBR Green assay); type: cell-based; conditions: Plasmodium falciparum, read-out: Asexual EC50
# Summary of the method: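 Growth was measured by SYBR Green I fluorescence (excitation 490 nm, emission 520 nm) after freeze-thaw lysis and 30 min staining at room temperature. Parasites (0.5% parasitemia, 2% hematocrit) had been incubated 72 h with compound, DMSO below 0.5%. Conditions were run in duplicate with no-drug and RBC-alone controls.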
# PAMPA permeability = type: in vitro ADME
# [3] = Table 2, read-out: Microsomal Stability (rat) T1/2
# [4] = Table 2, P. falciparum 3D7 asexual stage, 72 h
# [5] = Table 3, read-out: Microsomal Stability (rat) T1/2
# [6] = Table 3, P. falciparum 3D7 asexual stage, 72 h
# [7] = Table 1, P. falciparum 3D7 asexual stage, 72 h
# [8] = Table 1, read-out: Microsomal Stability (rat) T1/2
smiles,measurement,setting,value
CN(C)CCN1CCN(C(=O)c2ccc(-n3/c(=N\C#N)ccc4cnc5ccc(-c6ccc(Cl)cc6)cc5c43)cc2)CC1,half-life,[1]; [3],> 30 min
same,solubility,Solubility pH 7.4; Table 2,3.2 µg/mL
same,EC50,[2]; [4],45.4 nM
same,Papp,PAMPA permeability; Table 2,8.8 ×10⁻⁶ cm/s
N=c1ccc2cnc3ccc(-c4ccc(Cl)cc4)cc3c2n1-c1cccc(Cl)c1,half-life,[1]; [3],> 30 min
same,solubility,Solubility pH 7.4; Table 2,20.7 µg/mL
same,EC50,[2]; [4],178 nM
same,Papp,PAMPA permeability; Table 2,1240 ×10⁻⁶ cm/s
CCC(=O)/N=c1/ccc2cnc3ccc(-c4ccc(Cl)cc4)cc3c2n1-c1ccc(C(=O)NC2CC2)cc1,half-life,[1]; [3],4.8 min
same,solubility,Solubility pH 7.4; Table 2,< 1 µg/mL
same,EC50,[2]; [4],47.5 nM
same,Papp,PAMPA permeability; Table 2,445 ×10⁻⁶ cm/s
C/N=c1\ccc2cnc3ccc(-c4ccc(Cl)cc4)cc3c2n1-c1ccc(C(=O)NC2CC2)cc1,half-life,[1]; [3],17.4 min
same,solubility,Solubility pH 7.4; Table 2,< 1 µg/mL
same,EC50,[2]; [4],1210 nM
same,Papp,PAMPA permeability; Table 2,130 ×10⁻⁶ cm/s
N=c1ccc2cnc3ccc(-c4ccc(N)nc4)cc3c2n1-c1cccc(C(F)(F)F)c1,half-life,[1]; [3],> 30 min
same,solubility,Solubility pH 7.4; Table 2,> 64 µg/mL
same,EC50,[2]; [4],21.8 nM
same,Papp,PAMPA permeability; Table 2,228 ×10⁻⁶ cm/s
Cn1c(=N)n(-c2cncnc2)c2c3cc(-c4ccc(F)cc4)ccc3ncc21,half-life,[1]; [5],> 30 min
same,solubility,Solubility pH 7.4; Table 3,2 µg/mL
same,EC50,[2]; [6],194 nM
same,Papp,PAMPA permeability; Table 3,26.2 ×10⁻⁶ cm/s
Cn1c(=N)n(-c2cncnc2)c2c3cc(-c4ccc(N)nc4)ccc3ncc21,half-life,[1]; [5],> 30 min
same,solubility,Solubility pH 7.4; Table 3,33.9 µg/mL
same,EC50,[2]; [6],143 nM
same,Papp,PAMPA permeability; Table 3,12.9 ×10⁻⁶ cm/s
Cc1ccc(-c2ccc3ncc4c(c3c2)n(-c2cncnc2)c(=N)n4C)cc1,half-life,[1]; [5],> 30 min
same,solubility,Solubility pH 7.4; Table 3,18.5 µg/mL
same,EC50,[2]; [6],230 nM
same,Papp,PAMPA permeability; Table 3,32.3 ×10⁻⁶ cm/s
Cn1c(=N)n(-c2cncnc2)c2c3cc(-c4cccc(F)c4)ccc3ncc21,half-life,[1]; [5],> 30 min
same,solubility,Solubility pH 7.4; Table 3,24.9 µg/mL
same,EC50,"[2]; 3D7, 72 h",169 nM
same,Papp,PAMPA permeability; Table 3,60.6 ×10⁻⁶ cm/s
COc1ccc(-c2ccc3ncc4c(c3c2)n(-c2nccnc2C)c(=N)n4C)cc1OC,solubility,Solubility pH 7.4; Table 3,> 63 µg/mL
same,EC50,[2]; [6],58 nM
same,Papp,PAMPA permeability; Table 3,1240 ×10⁻⁶ cm/s
"Cn1c(=N)n(-c2ccccc2O)c2c3cc(-c4ccc(Cl)cc4)ccc3ncc21 [Compound 83, 2-(8-(4-chlorophenyl)-2-imino-3-methyl-2,3-dihydro-1H-imidazo[4,5-c]quinolin-1-yl)phenol]",solubility,Solubility pH 7.4; Table 1,< 1 µg/mL
same,EC50,[2]; [7],593 nM
same,Papp,PAMPA permeability; Table 1,859 ×10⁻⁶ cm/s
"Cc1ccc(C(N)=O)cc1-n1c(=N)n(C)c2cnc3ccc(-c4ccc(Cl)cc4)cc3c21 [Compound 92, 3-(8-(4-chlorophenyl)-2-imino-3-methyl-2,3-dihydro-1H-imidazo[4,5-c]quinolin-1-yl)-4-methylbenzamide]",half-life,[1]; [8],> 30 min
same,solubility,Solubility pH 7.4; Table 1,> 44 µg/mL
same,Papp,PAMPA permeability; Table 1,2 ×10⁻⁶ cm/s
"Cc1cccc(C)c1-n1c(=N)n(C)c2cnc3ccc(-c4ccc(Cl)cc4)cc3c21 [Compound 99, 8-(4-chlorophenyl)-1-(2,6-dimethylphenyl)-3-methyl-1,3-dihydro-2H-imidazo[4,5-c]quinolin-2-imine]",half-life,[1]; [8],> 30 min
same,solubility,Solubility pH 7.4; Table 1,> 41 µg/mL
same,EC50,[2]; [7],3180 nM
"Cc1ccc(C#N)cc1-n1/c(=N/S(N)(=O)=O)n(C)c2cnc3ccc(-c4ccc(N)nc4)cc3c21 [Compound 101, (8-(6-aminopyridin-3-yl)-1-(5-cyano-2-methylphenyl)-3-methyl-1,3-dihydro-2H-imidazo[4,5-c]quinolin-2-ylidene)sulfonamide]",half-life,[1]; [8],> 30 min
same,solubility,Solubility pH 7.4; Table 1,2.2 µg/mL
same,EC50,[2]; [7],3.07 nM
"Cn1c(=N)n(C2CCCCC2)c2c3cc(-c4ccc(Cl)cc4)ccc3ncc21 [Compound 102, 8-(4-chlorophenyl)-1-cyclohexyl-3-methyl-1,3-dihydro-2H-imidazo[4,5-c]quinolin-2-imine]",half-life,[1]; [8],> 30 min
same,solubility,Solubility pH 7.4; Table 1,22.3 µg/mL
same,EC50,[2]; [7],4780 nM
"COc1ccc(-c2ccc3ncc4c(c3c2)n(-c2cc(C#N)ccc2C)c(=N)n4C)cn1 [Compound 103, 3-(2-imino-8-(6-methoxypyridin-3-yl)-3-methyl-2,3-dihydro-1H-imidazo[4,5-c]quinolin-1-yl)-4-methylbenzonitrile]",half-life,[1]; [8],> 30 min
same,solubility,Solubility pH 7.4; Table 1,> 42 µg/mL
same,EC50,[2]; [7],163 nM
"CCC(=O)N1CCC(n2c(=N)n(C)c3cnc4ccc(-c5ccc(Cl)cc5)cc4c32)CC1 [Compound 104, 1-(4-(8-(4-chlorophenyl)-2-imino-3-methyl-2,3-dihydro-1H-imidazo[4,5-c]quinolin-1-yl)piperidin-1-yl)propan-1-one]",half-life,[1]; [8],> 30 min
same,solubility,Solubility pH 7.4; Table 1,> 44 µg/mL
same,EC50,[2]; [7],411 nM
"Cc1cc(NCCN(C)C)c(C#N)cc1-n1c(=N)n(C)c2cnc3ccc(-c4ccc(Cl)cc4)cc3c21 [Compound 113, 5-(8-(4-chlorophenyl)-2-imino-3-methyl-2,3-dihydro-1H-imidazo[4,5-c]quinolin-1-yl)-2-((2-(dimethylamino)ethyl)amino)-4-methylbenzonitrile]",half-life,[1]; [8],> 30 min
same,solubility,Solubility pH 7.4; Table 1,> 50 µg/mL
same,EC50,[2]; [7],546 nM
"Cc1cc(N2CCC(O)CC2)c(C#N)cc1-n1c(=N)n(C)c2cnc3ccc(-c4ccc(Cl)cc4)cc3c21 [Compound 114, 5-(8-(4-chlorophenyl)-2-imino-3-methyl-2,3-dihydro-1H-imidazo[4,5-c]quinolin-1-yl)-2-(4-hydroxypiperidin-1-yl)-4-methylbenzonitrile]",half-life,[1]; [8],> 30 min
same,solubility,Solubility pH 7.4; Table 1,< 1 µg/mL
same,EC50,[2]; [7],55.2 nM
"Cc1cc(N2CCN(CCO)CC2)c(C#N)cc1-n1c(=N)n(C)c2cnc3ccc(-c4ccc(Cl)cc4)cc3c21 [Compound 115, 5-(8-(4-chlorophenyl)-2-imino-3-methyl-2,3-dihydro-1H-imidazo[4,5-c]quinolin-1-yl)-2-(4-(2-hydroxyethyl)piperazin-1-yl)-4-methylbenzonitrile]",half-life,[1]; [8],> 30 min
same,solubility,Solubility pH 7.4; Table 1,> 55 µg/mL
same,EC50,[2]; [7],125 nM
"Cc1cc(N2CC(C)OC(C)C2)c(C#N)cc1-n1c(=N)n(C)c2cnc3ccc(-c4ccc(Cl)cc4)cc3c21 (stereo not drawn) [Compound 117, 5-(8-(4-chlorophenyl)-2-imino-3-methyl-2,3-dihydro-1H-imidazo[4,5-c]quinolin-1-yl)-2-(2,6-dimethylmorpholino)-4-methylbenzonitrile]",half-life,[1]; [8],> 30 min
same,solubility,Solubility pH 7.4; Table 1,< 1 µg/mL
same,EC50,[2]; [7],373 nM
"Cc1cc(N2CCN(S(C)(=O)=O)CC2)c(C#N)cc1-n1c(=N)n(C)c2cnc3ccc(-c4ccc(Cl)cc4)cc3c21 [Compound 118, 5-(8-(4-chlorophenyl)-2-imino-3-methyl-2,3-dihydro-1H-imidazo[4,5-c]quinolin-1-yl)-4-methyl-2-(4-(methylsulfonyl)piperazin-1-yl)benzonitrile]",half-life,[1]; [8],> 30 min
same,solubility,Solubility pH 7.4; Table 1,< 1 µg/mL
same,EC50,[2]; [7],135 nM
"Cc1ccc(S(C)(=O)=O)cc1-n1c(=N)n(C)c2cnc3ccc(-c4ccc(Cl)cc4)cc3c21 [Compound 122, 8-(4-chlorophenyl)-3-methyl-1-(2-methyl-5-(methylsulfonyl)phenyl)-1,3-dihydro-2H-imidazo[4,5-c]quinolin-2-imine]",half-life,[1]; [8],> 30 min
same,solubility,Solubility pH 7.4; Table 1,> 47 µg/mL
same,EC50,[2]; [7],1610 nM
"Cc1cc(NS(C)(=O)=O)c(C#N)cc1-n1c(=N)n(C)c2cnc3ccc(-c4ccc(Cl)cc4)cc3c21 [Compound 123, N-(4-(8-(4-chlorophenyl)-2-imino-3-methyl-2,3-dihydro-1H-imidazo[4,5-c]quinolin-1-yl)-2-cyano-5-methylphenyl)methanesulfonamide]",half-life,[1]; [8],> 30 min
same,solubility,Solubility pH 7.4; Table 1,< 1 µg/mL
same,EC50,[2]; [7],88.6 nM
"Cc1cc(N2CCNC(C)C2)c(C#N)cc1-n1c(=N)n(C)c2cnc3ccc(-c4ccc(Cl)cc4)cc3c21 (stereo not drawn) [Compound 124, 5-(8-(4-chlorophenyl)-2-imino-3-methyl-2,3-dihydro-1H-imidazo[4,5-c]quinolin-1-yl)-4-methyl-2-(3-methylpiperazin-1-yl)benzonitrile]",half-life,[1]; [8],> 30 min
same,solubility,Solubility pH 7.4; Table 1,1.9 µg/mL
same,EC50,[2]; [7],217 nM
"Cc1cc(N2CCN(C(N)=O)CC2)c(C#N)cc1-n1c(=N)n(C)c2cnc3ccc(-c4ccc(Cl)cc4)cc3c21 [Compound 126, 4-(4-(8-(4-chlorophenyl)-2-imino-3-methyl-2,3-dihydro-1H-imidazo[4,5-c]quinolin-1-yl)-2-cyano-5-methylphenyl)piperazine-1-carboxamide]",half-life,[1]; [8],> 30 min
same,solubility,Solubility pH 7.4; Table 1,2.2 µg/mL
same,EC50,[2]; [7],14.5 nM
"Cc1nc(N2CCOCC2)c(C#N)cc1-n1c(=N)n(C)c2cnc3ccc(-c4cccc(F)c4)cc3c21 [Compound 142, 5-(8-(3-fluorophenyl)-2-imino-3-methyl-2,3-dihydro-1H-imidazo[4,5-c]quinolin-1-yl)-6-methyl-2-morpholinonicotinonitrile]",half-life,[1]; [8],> 30 min
same,solubility,Solubility pH 7.4; Table 1,> 49 µg/mL
same,EC50,[2]; [7],225 nM
"Cc1cc(N2CCN(C)CC2)c(C#N)cc1-n1c(=N)n(C)c2cnc3ccc(-c4cccc(F)c4)cc3c21 [Compound 144, 5-(8-(3-fluorophenyl)-2-imino-3-methyl-2,3-dihydro-1H-imidazo[4,5-c]quinolin-1-yl)-4-methyl-2-(4-methylpiperazin-1-yl)benzonitrile]",half-life,[1]; [8],> 30 min
same,solubility,Solubility pH 7.4; Table 1,> 50 µg/mL
same,EC50,[2]; [7],159 nM
"COC(=O)/N=c1\n(C)c2cnc3ccc(-c4cccc(F)c4)cc3c2n1-c1cc(C#N)c(N2CCN(C)CC2)cc1C [Compound 146, Methyl (E)-(1-(5-cyano-2-methyl-4-(4-methylpiperazin-1-yl)phenyl)-8-(3-fluorophenyl)-3-methyl-1,3-dihydro-2H-imidazo[4,5-c]quinolin-2-ylidene)carbamate]",half-life,[1]; [8],21.2 min
same,solubility,Solubility pH 7.4; Table 1,14.5 µg/mL
same,EC50,[2]; [7],62.7 nM
"Cc1ccc(C#N)cc1-n1c(=N)n(C)c2cnc3ccc(C#Cc4ccccc4)cc3c21 [Compound 154, 3-(2-imino-3-methyl-8-(phenylethynyl)-2,3-dihydro-H-imidazo[4,5-c]quinolin-1-yl)-4-methylbenzonitrile]",half-life,[1]; [8],> 30 min
same,solubility,Solubility pH 7.4; Table 1,1.4 µg/mL
same,EC50,[2]; [7],1750 nM
